# Source: US20160051514A1, “METHODS FOR TREATMENT OF CARDIOMYOPATHY” (THE BRIGHAM AND WOMEN'S HOSPITAL, INC., priority 2013, published 2016)
# Entries after “also recorded” stand apart in the source; their conditions may differ.
# Assays:
# [1] = tested on: 2057del2 plakoglobin zebrafish; experiment: Survival and cardiac physiology in the zebrafish model of ACM; type: in vivo; settings: data not shown
# Description: In-house software (implemented in MATLAB™) was used to determine heart rate, while measurements of ventricular long and short axes in both diastole and systole were obtained using ImageJ™. Cardiac output was measured as diastolic minus systolic ventricular volume multiplied by heart rate, as outlined by Shin et al (30). Fractional shortening was calculated as end-diastolic diameter minus end-systolic diameter divided by end-diastolic diameter.
# Survival studies: Embryos were kept in petri dishes until 7 dpf and then transferred to nursery tanks with larval food. Observations for phenotype and survival were recorded for several weeks. Data are presented as a Kaplan-Meier curve using Graphpad™ software.
# [2] = tested on: neonatal rat ventricular myocytes expressing 2057del2 plakoglobin; experiment: Immunofluorescence of intercalated disk proteins in neonatal rat ventricular myocytes; type: cell-based; settings: cells expressing 2057del2 plakoglobin; 5 μM, 24 hr
# Description: Neonatal rat ventricular myocyte isolation and culture, stretch protocols: Primary cardiac myocyte cultures were prepared from ventricles of 1-day-old Wistar rat pups (Charles River) as previously described.^9 Cells were plated on collagen-coated plastic chamber slides at a density of […] cells/cm^2 and grown for 4 days prior to experimentation. In selected experiments, monolayers grown on collagen--coated silicone membranes were subjected to linear pulsatile stretch using a custom-designed apparatus as described in previous studies.'° Cells were stretched to 110% of resting length at a. frequency of 3 Hz for 1-4 hr in serum-free medium. In other experiments cultures were incubated with reagents including pifitlirin A (5 μM, 1 hr) and SB216763 (5 μM, 24 hr) prior to experimentation. All protocols were approved by the Institutional Animal Care and Use Committee (IACUC).
# Viral transfection: A recombinant adenoviral construct expressing 2057del2-plakoglobin was created with the ViraPower Adenoviral Expression system (Invitrogen) using the pAd/CMV/V5-DEST vector through LR clonase-mediated recombination. The V5-tag was used to identify the mutant protein and distinguish it from wildtype plakoglobin. Two days post-plating, monolayers were exposed to viral solution (1:130 dilution in serum-free media, 37° C.) for 1 hr after which viral solution was replaced with complete medium in the presence or absence of reagents.
# Immunofluoresence staining and microscopy in cultured cells: Cultures were rinsed in serum-free medium and fixed in 4% paraformaldehyde at room temperature for 5 min or in acetone at −20° C. for 10 min. Fixed cells were immunostained with mouse monoclonal anti-plakoglobin (Sigma), anti-N-cadhcrin (Sigma), anti-Cx43 (Millipore), anti-desmopla.kin (Fitzgerald), anti-SAP97 (Santa Cruz Biotechnology) antibodies and anti-Nav1.5 (kindly provided by Dr. Hugues Abriel, University of Bern, Switzerland) antibodies. Specific immunoreactive signal was detected by laser scanning confocal microscopy as previously described.”
# Neonatal rat ventricular myocyte isolation, culture, stretch protocols: Primary cardiac myocyte cultures were prepared from ventricles of 1-day-old Wistar rat pups (Charles River) as previously described (36). Cells were plated on collagen-coated plastic chamber slides at a density of 2.4×10^5 cells/cm2 and grown for 4 days prior to experimentation. In selected experiments, monolayers grown on collagen-coated silicone membranes were subjected to linear pulsatile stretch using a custom-designed apparatus as described in previous studies (35). Cells were stretched to 110% of resting length at a frequency of 3 Hz for 1-4 hr in serum-free medium. In other experiments cultures were incubated with reagents including pifithrin A (5 μM, 1 hr) and SB216763 (0.1-10 μM for 12 or 24 hr) prior to experimentation. Vehicle controls (DMSO) were included in all experiments.
# Viral transfection: A recombinant adenoviral construct expressing 2057del2 plakoglobin was created with the ViraPower Adenoviral Expression™ system (Invitrogen) using the pAd/CMV/V5-DEST vector through LR clonase-mediated recombination. The V5-tag was used to identify the mutant protein and distinguish it from wildtype plakoglobin. Two days post-plating, monolayers were exposed to viral solution (1:130 dilution in serum-free media, 37° C.) for 1 hr after which viral solution was replaced with complete medium in the presence or absence of reagents. Immunofluorescence staining and microscopy in cultured cells: Cultures were rinsed in serum-free medium and fixed in 4% paraformaldehyde at 25° C. for 5 min or in acetone at −20° C. for 10 min. Fixed cells were immunostained with mouse monoclonal anti-plakoglobin (Sigma), anti-N-cadherin (Sigma), anti-Cx43 (Millipore), anti-desmoplakin (Fitzgerald), anti-SAP97 (Santa Cruz Biotechnology) antibodies and anti-Nav1.5 antibodies (rabbit polyclonal).
# [3] = tested on: neonatal rat ventricular myocytes expressing 2057del2 plakoglobin; experiment: TUNEL assay of myocyte apoptosis; type: cell-based
# Excerpt: (§1) TUNEL assay: Apoptotic cells in cultures were detected by terminal deoxynucleotidyl transferase-mediated biotinylated UTP nick end-labeling (TUNEL) assay using the ApopTag™ Fluorescein Direct in Situ Apoptosis Detection Kit (Millipore) as previously described.^9 Nuclei were stained with DAPI, and TUNEL-positive and total nuclei were counted under a laser scanning confocal microscope in 5 fields per chamber.
# as §1, with “ApopTag” for “ApopTag™”, “KitTM” for “Kit”, “according to the manufacturer's instructions.” for “as previously described.^9”, “DAPI;” for “DAPI, and”, “chamber or silicone membrane in stretch experiments.” for “chamber.”
SMILES,Effectiveness of other GSK-3β inhibitors in attenuating the mutant phenotype compared with SB216763 [1],Subcellular distribution of plakoglobin immunoreactive signal (junctional vs intracellular/nuclear) [2],also measured
"[Cl-].[Li+] [LiC1, reference compound]",none of which were as effective,,
"Cc1c[nH]c(-c2cnc(NCCNc3ccc(C#N)cn3)nc2-c2ccc(Cl)cc2Cl)n1 [CHIR99021, reference compound]",do not exhibit the therapeutic benefits; also recorded: none of which were as effective,intensified plakoglobin signal in nuclei,
"O=C1Nc2cc(Br)ccc2/C1=C1/Nc2ccccc2/C1=N\O [BIO, 6-bromoindirubin-3′-oxime, reference compound]",do not exhibit the therapeutic benefits; also recorded: none of which were as effective,,
"Cc1ccc(C(=O)Cn2c3c(sc2=N)CCCC3)cc1 [pifithrin-A, reference compound]",,,"Apoptosis in transfected myocytes exposed to stretch ([3]; 4 hr of stretch, vs stretch without inhibitor): significantly reduced apoptosis; Apoptosis in cells expressing 2057del2 plakoglobin ([3]; pifithrin-A 5 μM): could be prevented"
"Cn1cc(C2=C(c3coc4ccccc34)C(=O)NC2=O)c2cc(Br)ccc21 [BIP 135, reference compound]",none of which were as effective,,
"O=C(Nc1ccc([N+](=O)[O-])cc1Cl)c1cc(Cl)ccc1O [niclosamide, reference compound]",,increased nuclear localization of plakoglobin,
